± gives the uncertainty stated by the source.
Assays:
[1] = system: KeratinoSens (HaCaT ARE-luciferase) cells; assay: AC50 of Nrf2/ARE luciferase induction; higher = less potent; settings: exposure time: 24 h
THP-1 [2] = assay: efficacy of IL-8 induction relative to DMSO (% activity); higher = stronger induction; settings: exposure time: 18 h
[3] = system: lysine peptide Ac-RFAAKAA-COOH; assay: efficacy of lysine peptide change (negative = depletion) (% activity); higher = less depletion; settings: incubation time: 24 h
[4] = system: cysteine peptide Ac-RFAACAA-COOH; assay: efficacy of cysteine peptide change (negative = depletion) (% activity); higher = less depletion; settings: incubation time: 24 h
[5] = system: KeratinoSens (HaCaT ARE-luciferase) cells; assay: efficacy of ARE luciferase induction relative to DMSO (% activity over DMSO); higher = stronger induction; settings: exposure time: 24 h
[6] = system: cysteine peptide Ac-RFAACAA-COOH; assay: AC50 of cysteine peptide concentration-response (direction given by sign of efficacy); higher = less potent; settings: incubation time: 24 h
[7] = system: KeratinoSens (HaCaT ARE-luciferase) cells; assay: cytotoxicity AC50 (CellTiter-Fluor viability); higher = less cytotoxic; settings: exposure time: 24 h
THP-1 [8] = assay: AC50 of IL-8 secretion induction; higher = less potent; settings: exposure time: 18 h

SMILES | AC50 of Nrf2/ARE luciferase induction [1] [µM] | efficacy of IL-8 induction (THP-1 [2]) | efficacy of lysine peptide change [3] | efficacy of cysteine peptide change [4] | efficacy of ARE luciferase induction [5] | AC50 [6] [µM] | cytotoxicity AC50 [7] [µM] | AC50 of IL-8 secretion induction (THP-1 [8]) [µM]
Nc1ccccc1N [1,2-Phenylenediamine*] | 34.4 | 4.93 ± 5.2 | 7.79 ± 12 | -90.9 ± 5 | 88 ± 31 | 1.06 ± 0.49 |  | 
O=C(CCl)CCl [1,3-Dichloropropanone] | 40.9 | 22.5 ± 6.2 | -12.5 ± 16 | -107 ± 9.9 | 84.2 ± 64 | 35.6 ± 4.1 |  | 
Nc1ccc(N)cc1 [1,4-Benzenediamine] | 39.8 | 19.1 ± 5.7 | 61 ± 17 | -107 ± 20 | 54.5 ± 20 | 9.58 ± 2.8 |  | 
C=CC(=O)OCCCCCCOC(=O)C=C [1,6-Hexanediol diacrylate] | 35.5 | 9.97 ± 9.4 | 9.01 ± 17 | -106 ± 3.3 | 343 ± 90 | 50.1 | 43 ± 2.8 | 
Cc1ccc2c(c1N)C(=O)c1ccccc1C2=O [1-Amino-2-methylanthraquinone] | 37.8 | 0 | -8.55 ± 7.6 | -101 ± 4.8 | 55.7 ± 35 | 24.3 ± 3.4 |  | 
Clc1nc(C(Cl)(Cl)Cl)c(Cl)c(Cl)c1Cl [2,3,4,5-Tetrachloro-6-(trichloromethyl)pyridine] |  | 33.7 ± 5.8 | 1.85 ± 3.2 | -2.03 ± 3.5 | 43.7 ± 28 |  | 37.1 ± 4.7 | 47.3
C/C=C/C=C/C=O [2,4-Hexadienal] | 73.7 | 12.8 ± 12 | -110 ± 23 | -129 ± 9.8 | 427 ± 46 | 17 ± 5 |  | 
CC(C)(C)c1cc(O)c(C(C)(C)C)cc1O [2,5-Di-tert-butylbenzene-1,4-diol] | 42.1 | 40.9 ± 4.8 | -4 ± 6.9 | -80.8 ± 14 | 175 ± 86 | 85.9 ± 5.6 | 34.2 ± 2.2 | 
c1ccc2sc(SSN3CCOCC3)nc2c1 [2-(Morpholin-4-yldithio)-1,3-benzothiazole] |  | 58 ± 8.8 |  |  | 57.3 ± 29 |  |  | 59.9
O=C(CCl)c1ccccc1 [2-Chloroacetophenone] | 35.5 | 29.4 ± 7.2 | 9.03 ± 16 | -94.1 ± 28 | 327 ± 92 | 49.4 ± 34 | 57 ± 12 | 
CCN(CC)c1ccc(C(=O)c2ccccc2C(=O)O)c(O)c1 [2-[4-(Diethylamino)-2-hydroxybenzoyl]benzoic acid] |  | 75.5 ± 11 | -5.24 ± 15 | 1.78 ± 13 | 56.6 ± 46 |  | 30.5 ± 2 | 38.4
O=c1ssc(Cl)c1Cl [4,5-Dichloro-3H-1,2-dithiol-3-one] | 21.3 | 24.5 ± 3.5 | -36.4 ± 2.7 | -102 ± 9.4 | 92.3 ± 9.5 | 1.4 ± 0.39 | 37.8 ± 11 | 
CN(C)c1ccc(SC#N)cc1 [4-(Dimethylamino)phenylthiocyanate] | 34.2 | 87.8 ± 8.9 | 1.57 ± 29 | -101 ± 5.4 | 73.3 ± 36 | 3.84 ± 0.25 | 65 ± 18 | 
Nc1ccc(Cl)cc1N [4-Chloro-1,2-diaminobenzene*] | 13.7 | 10.3 ± 2.3 | -6.76 ± 18 | -99.1 ± 6 | 70 ± 21 | 5.4 ± 2.3 |  | 
C=CC(=O)OCCOC(=O)CCC(=O)O [4-[2-(Acryloyloxy)ethoxy]-4-oxobutanoic acid] | 61.3 | 0 | -2.94 ± 13 | -111 ± 7.3 | 87.4 ± 29 | 34.1 ± 14 |  | 
O=c1cc(-c2ccccc2)oc2ccc3ccccc3c12 [5,6-Benzoflavone] |  | 98 ± 14 |  |  | -34.9 ± 4.2 |  |  | 79.4
O=C(Nc1ccccc1)c1cc(Cl)ccc1O [5-Chlorosalicylanilide] |  | 112 ± 7.5 | 77.4 ± 23 | -46 ± 19 | -20.1 ± 52 |  | 25.2 ± 2.9 | 35.5
Cc1c2ccccc2c(C)c2c1ccc1ccccc12 [7,12-Dimethylbenzanthracene] | 29.6 | 129 ± 15 | -47.7 ± 5.3 | -86.2 ± 6.7 | 69 ± 29 | 19.4 ± 11 | 57 ± 12 | 
CC1COc2ccccc2N1C(=O)C(Cl)Cl (stereo not drawn) [Benoxacor] |  | 136 ± 40 | 9.43 ± 16 | 5.74 ± 9.9 | 33.2 ± 15 |  | 46.5 ± 3.1 | 79.8
c1ccc2cc3c(ccc4ccccc43)cc2c1 [Benz(a)anthracene] | 40 | 32.1 ± 4.5 | -36.8 ± 14 | -97.8 ± 2.9 | 126 ± 33 | 12.2 ± 1.7 |  | 
Oc1ccc2ccccc2c1N=Nc1ccccc1 [C.I. Solvent Yellow 14] | 28.2 | 5.32 ± 9.2 | -31.1 ± 6.5 | -94.7 ± 4 | 49.8 ± 19 | 10.8 ± 3.5 |  | 
CCCCNC(=O)OCC#CI [Carbamic acid, butyl-, 3-iodo-2-propynyl ester] | 27.3 | 20.3 ± 4.5 | 64.6 ± 18 | -92.5 ± 3.8 | 133 ± 50 | 1.05 ± 0.13 | 37.1 ± 4.7 | 
Cl/C=C\C[N+]12CN3CN(CN(C3)C1)C2 [Chloroallyl methenamine chloride] | 73.7 | 6.91 ± 6.8 | -14.5 ± 14 | -102 ± 6.1 | 1290 ± 60 | 19.6 ± 4.8 |  | 
C/C=C/C=C/CCCCCCCO [Codlelure] | 73.7 | 8.57 ± 7.8 | 20.6 ± 4.8 | -104 ± 14 | 1300 ± 400 | 28.6 ± 15 | 44.9 ± 5.2 | 
COc1ccc(C(=O)/C(Br)=C\C(=O)O)cc1 [Cytembena] | 37.1 | 33.2 ± 4.5 | 12.2 ± 14 | -95.5 ± 18 | 417 ± 100 | 79.8 ± 9.2 | 57 ± 12 | 
CN(C)S(=O)(=O)N(SC(F)(Cl)Cl)c1ccccc1 [Dichlofluanid] | 15.8 | 19.9 ± 4.2 | 62.1 ± 23 | -92.1 ± 5 | 169 ± 52 | 1.96 ± 0.48 | 27.2 ± 1.8 | 
COc1cccc2c1C(=O)c1c(O)c3c(c(O)c1C2=O)C[C@@](O)(C(=O)CO)C[C@@H]3O[C@H]1C[C@H](N)[C@H](O)[C@H](C)O1 [Doxorubicin*] | 7.94 | 31.2 ± 4.9 | -21.7 ± 10 | -92.2 ± 5 | 860 ± 140 | 0.9 ± 0.1 | 11.3 ± 1.3 | 
C=C1CC[C@H](O)C/C1=C/C=C1\CCC[C@]2(C)[C@@H]([C@H](C)/C=C/[C@H](C)C(C)C)CC[C@@H]12 [Ergocalciferol*] | 34.2 | 20.2 ± 3.7 | -20.5 ± 4.3 | -99.4 ± 8.8 | 78.7 ± 43 | 28.3 ± 9.3 |  | 

Source: the supplement of paper PMC10933113
